The structures appear in SMILES notation.

The subject of the experiment is TEAD-dependent transcription. As to the kind of experiment: TEAD-dependent transcription cell-based reporter assay (MSTO-211H+12XGTIIC luciferase). Details: species or system human. Particulars: Homo sapiens; MSTO-211H+12XGTIIC cell line, luciferase signal normalized to cell viability, 24 hours compound incubation; read-out: MSTO-211H GMean IC50 (uM) Cell Assay Reporter Cell Variant: TEAD. In outline:
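MSTO-211H mesothelioma cells stably carrying a 12xGTIIC TEAD-response-element luciferase reporter, treated with serial compound dilutions for 24 h at 37 °C. Luminescence normalized to CellTiter-Fluor viability signal; % inhibition versus DMSO and 20 μM K-975 controls, IC50 by nonlinear regression.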
In general terms: In a reporter assay the amount or activity of a reporter protein is the signal.
As for `CS(=O)(=O)c1ccnc(N2CCc3ccc(Oc4ccc(C(F)(F)F)cc4)cc3C2)c1` [P-0227, 2-(4-(methylsulfonyl)pyr-idin-2-yl)-7-(4-(trifluoro-methyl)phenoxy)-1,2,3,4-tetrahydroisoquinoline], the IC50 was 0.001 to 10 µM. The result for `NS(=O)(=O)CCC(=O)N1CCc2ccc(Oc3ccc(C(F)(F)F)cc3)cc2C1` [P-0048, 3-oxo-3-(7-(4-(trifluoro-methyl)phenoxy)-3,4-dihydroisoquinolin-2(1H)-yl)propane-1-sulfonamide] reads 0.001 to 10 µM. Then `CN1CCN(CCC(=O)N2CCc3ccc(Oc4ccc(C(F)(F)F)c(F)c4)cc3C2)CC1` [P-0095, 1-(7-(3-fluoro-4-(trifluoromethyl)phenoxy)-3,4-dihydroisoquinolin-2(1H)-yl)-3-(4-methylpiperazin-1-yl)propan-1-one], with 0.001 to 10 µM; and `CSCCC(=O)N1CCc2ccc(Oc3ccc(C(F)(F)F)cc3)cc2C1` [P-0031, 3-(methylthio)-1-(7-(4-(trifluoromethyl)phen-oxy)-3,4-dihydroisoquin-olin-2(1H)-yl)propan-1-one], with 0.001 to 10 µM; and `Nc1nc(CC(=O)N2CCc3ccc(Oc4ccc(C(F)(F)F)c(F)c4)cc3C2)cs1` [P-0155, 2-(2-aminothiazol-4-yl)-1-(7-(3-fluoro-4-(trifluoromethyl)phen-oxy)-3,4-dihydroisoquin-olin-2(1H)-yl)ethan-1-one], with 0.001 to 10 µM. With `NC(=O)N1CCC(C(=O)N2CCc3c(cccc3Oc3ccc(C(F)(F)F)cc3)C2)C1` (centres unmarked) [P-0256, 3-(5-(4-(trifluorometh-yl)phenoxy)-1,2,3,4-tetrahydroisoquinoline-2-carbonyl)pyrrolidine-1-carboxamide], the IC50 lay within 0.001 to 10 µM.

With `NC(=O)CCS(=O)(=O)N1CCc2ccc(Oc3ccc(C(F)(F)F)cc3)cc2C1` [P-0051, 3-((7-(4-(trifluorometh-yl)phenoxy)-3,4-dihydro-isoquinolin-2(1H)-yl)sul-fonyl)propanamide], the IC50 is 0.001 to 10 µM. The result for `CNC(=O)c1cccc(N2CCc3ccc(Oc4ccc(C(F)(F)F)cc4)cc3C2)n1` [P-0229, N-methyl-6-(7-(4-(trifluoromethyl)phen-oxy)-3,4-dihydroisoquin-olin-2(1H)-yl)picolin-amide] reads 0.001 to 10 µM; that for `CS(=O)(=O)c1cccnc1C(=O)N1CCc2ccc(Oc3ccc(C(F)(F)F)cc3)cc2C1` [P-0074, (3-(methylsulfonyl)pyr-idin-2-yl)(7-(4-(trifluoro-methyl)phenoxy)-3,4-dihydroisoquinolin-2(1H)-yl)methanone], 0.001 to 10 µM; that for `C=C(C)OC(=O)N1CCc2ccc(Oc3ccc(C(F)(F)F)cc3)cc2C1` [P-0036, prop-1-en-2-yl 7-(4-(trifluoromethyl)phen-oxy)-3,4-dihydroiso-quinoline-2(1H)-carbox-ylate], 0.001 to 10 µM.

On to `O=C(Cc1ccn[nH]1)N1CCc2c(cccc2Oc2ccc(C(F)(F)F)cc2)C1` [P-0241, 2-(1H-pyrazol-5-yl)-1-(5-(4-(trifluoromethyl)-phenoxy)-3,4-dihydroiso-quinolin-2(1H)-yl)ethan-1-one], for which the IC50 was in the range of 0.001 to 10 µM. Turning to `C=CC(=O)N1CCC(C2c3cc(Oc4ccc(C(F)(F)F)cc4)ccc3CCN2C(=O)CCS(C)(=O)=O)C1` (single isomer, unassigned) [P-0217, 1-(3-(2-(3-(methylsulfonyl)propanoyl)-7-(4-(trifluoromethyl)phenoxy)-1,2,3,4-tetrahydroisoquinolin-1-yl)pyrrolidin-1-yl)prop-2-en-1-one], the IC50 lay within 0.001 to 10 µM. The result for `CN1CCC(C(=O)N2CCc3ccc(Oc4ccc(C(F)(F)F)c(F)c4)cc3C2)CC1` [P-0109, (7-(3-fluoro-4-(trifluoro-methyl)phenoxy)-3,4-dihydroisoquinolin-2(1H)-yl)(1-methylpiper-idin-4-yl)methanone] reads 0.001 to 10 µM; that for `C=CC(=O)N1CCC(C(=O)N2CCc3c(cccc3Oc3ccc(C(F)(F)F)cc3)C2)C1` (centres unmarked) [P-0253, 1-(3-(5-(4-(trifluorometh-yl)phenoxy)-1,2,3,4-tetrahydroisoquinoline-2-carbonyl)pyrrolidin-1-yl)prop-2-en-1-one], 0.001 to 10 µM; that for `O=C(Cc1cc[nH]n1)N1CCc2ccc(Oc3ccc(C(F)(F)F)cc3)cc2C1` [P-0133, 2-(1H-pyrazol-3-yl)-1-(7-(4-(trifluoromethyl)-phenoxy)-3,4-dihydroiso-quinolin-2(1H)-yl)ethan-1-one], 0.001 to 10 µM. As to `CS(=O)(=O)CCC(=O)N1CCc2ccc(Oc3ccc(C(F)(F)F)cc3)c(-n3cc(C(F)(F)F)cn3)c2C1` [P-0208, 3-(methylsulfonyl)-1-(8-(4-(trifluoromethyl)-1H-pyrazol-1-yl)-7-(4-(trifluoromethyl)phen-oxy)-3,4-dihydroisoquin-olin-2(1H)-yl)propan-1-one], the IC50 lay in the range of 0.001 to 10 µM. For `CN(CCC#N)C(=O)N1CCc2ccc(Oc3ccc(C(F)(F)F)cc3)cc2C1` [P-0066], the IC50 is 0.001 to 10 µM.

What is called IC50 is the concentration at which inhibition is half-maximal.
